Measurements published in US7153870B2, “Nicotinamide derivatives useful as PDE4 inhibitors” (Pfizer Inc., priority 2003, dated 2006).

System: TNFα release from human peripheral blood mononuclear cells
Assay: Inhibition of LPS-stimulated TNFα release from human peripheral blood mononuclear cells (TNFα screen)
Assay type: cell-based
Conditions: LPS-stimulated human PBMC, 18 hours incubation, TNFα in supernatant by ELISA
Description: Venous blood is collected from healthy volunteers and the mononuclear cells purified by centrifugation through Histopaque (Ficoll) cushions. TNFα production from these cells is stimulated by addition of lipopolysaccharide. After 18 hours incubation in the presence of LPS, the cell supernatant is removed and the concentration of TNFα in the supernatant determined by ELISA. Addition of PDE4 inhibitors reduces the amount of TNFα produced. An IC50 is determined which is equal to the concentration of compound that gives 50% inhibition of TNFα production as compared to the LPS stimulated control wells.

Compound | IC50 [nM]
CSc1cccc(Oc2ncc(F)cc2C(=O)N[C@H]2CC[C@@H](NC(=O)c3cc4ccccn4n3)CC2)c1 [Example 1, Syn-Pyrazolo[1,5-a]pyridine-2-carboxylic acid(4-{[5-fluoro-2-(3-methylsulfanyl-phenoxy) -pyridine-3-carbonyl]-amino}-cyclohexyl)-amide] | 0.1
CSc1cccc(Oc2ncc(F)cc2C(=O)N[C@H]2CC[C@@H](NC(=O)c3cccn4ccnc34)CC2)c1 [Example 6, Syn-Imidazo[1,2-a]pyridine-8-carboxylic acid(4-{[5-fluoro-2-(3-methylsulfanyl-phenoxy) -pyridine-3-carbonyl]-amino}-cyclohexyl)-amide] | 0.02
Syn-Imidazo[1,2-a]pyridine-2-carboxylic acid(4-{[5-fluoro-2-(3-methylsulfanyl -phenoxy)-pyridine-3-carbonyl]-amino}-cyclohexyl)-amide [Example 3] | 0.1
CSc1cccc(Oc2ncc(F)cc2C(=O)N[C@H]2CC[C@@H](NC(=O)c3cccc4cc(O)cnc34)CC2)c1 [Example 9, Syn-3-Hydroxy-quinoline-8-carboxylic acid(4-{[5-fluoro-2-(3-methylsulfanyl-phenoxy) -pyridine-3-carbonyl]-amino}-cyclohexyl)-amide] | 0.15
Syn-1-Isopropyl-1H-benzoimidazole-4-carboxylic acid(4-{[5-fluoro-2-(3-methylsulfanyl-phenoxy)-pyridine-3-carbonyl]-amino}-cyclohexyl)-amide [Example 2] | 1
Syn-2-Methyl-3H-benzoimidazole-4-carboxylic acid(4-{[5-fluoro-2-(3-methylsulfanyl-phenoxy)-pyridine-3-carbonyl]-amino}-cyclohexyl)-amide [Example 5] | 0.04
CSc1cccc(Oc2ncc(F)cc2C(=O)N[C@H]2CC[C@@H](NC(=O)c3cccc4nn[nH]c34)CC2)c1 [Example 7, Syn-3H-Benzotriazole-4-carboxylic acid(4-{[5-fluoro-2-(3-methylsulfanyl-Phenoxy) -pyridine-3-carbonyl]-amino}-cyclohexyl)-amide] | 0.4
Syn-1H-Indazole-3-carboxylic acid(4-{[5-fluoro-2-(3-methylsulfanyl-phenoxy) -pyridine-3-carbonyl]-amino}-cyclohexyl)-amide [Example 4] | 2
CSc1cccc(Oc2ncc(F)cc2C(=O)N[C@H]2CC[C@@H](NC(=O)c3cccc4cccnc34)CC2)c1 [Example 8, Syn-Quinoline-8-carboxylic acid(4-{[5-fluoro-2-(3-methylsulfanyl-phenoxy) -pyridine-3-carbonyl]-amino}-cyclohexyl)-amide] | 0.25
CSc1cccc(Oc2ncc(F)cc2C(=O)N[C@H]2CC[C@@H](NC(=O)c3nn(CCO)c4ccccc34)CC2)c1 [Example 10, Syn-1-(2-Hydroxy-ethyl)-1H-indazole-3-carboxylic acid(4-{[5-fluoro-2-(3-methylsulfanyl-phenoxy)-pyridine-3-carbonyl]-amino}-cyclohexyl)-amide] | 0.3
